This note sets out measurements from US20250179040A1, “HISTAMINE H3 RECEPTOR ANTAGONISTS AND THEIR PHARMACEUTICAL USES” (HANGZHOU BIO-SINCERITY PHARMA-TECH CO., LTD., priority 2022, published 2025).

Data set [1] deals with hERG channel (Homo sapiens, UniProt Q12809). The data set is described as follows: in vitro. The note with it: Average inhibition rate (%) on hERG channel. The text has this:
In cardiomyocytes, inhibition of the delayed rectifier potassium current (IKr) channel protein encoded by the human Ether-a-go-go Related Gene (hERG) is the most important mechanism by which drugs lead to prolongation of the QT interval. hERG is characterized by a specific molecular structure, which allows it to be inhibited by different structures, leading to severe arrhythmias. Statistically, 25-40% of lead compounds show varying degrees of hERG-related toxicity. Therefore, early evaluation of the effects of compounds on hERG is crucial in the drug development process.
The inhibition rate of compounds on hERG channels was examined by manual membrane clamp technique on HEK293 cell line which is stably expressing hERG ion channels.

In data set [2] the target is histamine H3 receptor (Homo sapiens, UniProt Q9Y5N1). Nature of the data set: FLPPR assay, antagonistic activity on histamine H3 receptor. The data set is classed as cell-based. The note with it: for inhibition at 0.005 µM: read-out: % Inh-AVERAGE @ 5 nM; for inhibition at 0.05 µM: read-out: % Inh-AVERAGE @ 50 nM. The protocol: The FLPPR assay (NIH Assay Guidance Manual: HTS Assay Validation-Section 4.3. Analysis (Potency), htpps://www.ncbi.nlm.nih.gov/books/NBK83783) was performed using SUVN-G3031 as a positive control, and 21 target compounds were tested for the antagonistic activity target to histamine H3 receptor.

Data set [3] has as its system CCI model rats. Nature of the data set: Analgesic effect, chronic constriction injury (CCI) model, mechanical withdrawal threshold. It counts as in vivo, SD rats. An excerpt: Exposing the sciatic nerve on male SD rats' (180-200 g) right hind leg, in the anterior segment where the sciatic nerve is about to bifurcate, use sterile chromic gut thread (No. 4, 0.15 mm in diameter) to ligate 4 loops loosely, with each loop 1-2 mm apart, and suture the muscle and skin to establish the chronic constriction injury (CCI) model. In the sham-operated group, only the sciatic nerve was exposed without ligation, and the muscle and skin were sutured. The mechanical withdrawal threshold was detected by electronic analgesia meter (IITC-2391) on the 7th day for 2 consecutive days.
The CCI model rats with stabilized mechanical withdrawal thresholds were randomly divided into five groups, named model group (model), pregabalin group (Pre, 30 mg/kg), BIOS-B-12 compound group (3 mg/kg), BIOS-B-12 compound group (1 mg/kg), and BIOS-B-12 compound group (0.3 mg/kg), and were administered at 1 mL/100 g by gavage, and the same column of saline was gavaged in Sham an model group. The basic value was determined before drug administration, and the mechanical withdrawal thresholds were detected at 0.5 h, 1 h, 2 h, 4 h, 6 h, and 24 h after a single drug administration, and the p value was calculated by ANOVA with T-test.
The CCI model rats with stabilized mechanical withdrawal thresholds were randomly divided into three groups, named model group (model), pregabalin group (Pre, 30 mg/kg), and BIOS-B-14 compound group (1 mg/kg), and were administered at 1 mL/100 g by gavage, and the same column of saline was gavaged in Sham and model group. The basic value was determined before drug administration, and the mechanical withdrawal thresholds were detected at 0.5 h, 1 h, 2 h, 4 h, and 6 h after a single drug administration, and the p value was calculated by ANOVA with T-test.

Data set [4] concerns histamine-induced scratching. Nature of the data set: Antipruritic ability, histamine-induced scratching in mice. The data set is classed as in vivo, C57BL/6J mice. The note with it: BIOS-B-12 10 mg/kg 4 h, BIOS-B-18 10 mg/kg 1 h, Dex 3 mg/kg 1 h before histamine 500 μg/50 μL s.c.; observed 30 min; (Model-Compound)/Model×100%. Here is the method:
The C57BL/6J male mice, with 6-8 weeks old, were randomly divided into model group (Model), BIOS-B-12 compound group (10 mg/kg), BIOS-B-18 compound group (10 mg/kg) and dexamethasone group (Dex, 3 mg/kg), with 7 animals in each group. The mice were injected subcutaneously with 500 μg/50 μL histamine at the back of the neck after the administration of dexamethasone for 1 h, BIOS-B-12 for 4 h, and BIOS-B-18 for 1 h, respectively, and immediately observed for 30 min. The number of scratched was recorded and the inhibition rate was calculated as (Model-Compound)/Model×100%.

Chain of hERG channel (Q12809 whole entry): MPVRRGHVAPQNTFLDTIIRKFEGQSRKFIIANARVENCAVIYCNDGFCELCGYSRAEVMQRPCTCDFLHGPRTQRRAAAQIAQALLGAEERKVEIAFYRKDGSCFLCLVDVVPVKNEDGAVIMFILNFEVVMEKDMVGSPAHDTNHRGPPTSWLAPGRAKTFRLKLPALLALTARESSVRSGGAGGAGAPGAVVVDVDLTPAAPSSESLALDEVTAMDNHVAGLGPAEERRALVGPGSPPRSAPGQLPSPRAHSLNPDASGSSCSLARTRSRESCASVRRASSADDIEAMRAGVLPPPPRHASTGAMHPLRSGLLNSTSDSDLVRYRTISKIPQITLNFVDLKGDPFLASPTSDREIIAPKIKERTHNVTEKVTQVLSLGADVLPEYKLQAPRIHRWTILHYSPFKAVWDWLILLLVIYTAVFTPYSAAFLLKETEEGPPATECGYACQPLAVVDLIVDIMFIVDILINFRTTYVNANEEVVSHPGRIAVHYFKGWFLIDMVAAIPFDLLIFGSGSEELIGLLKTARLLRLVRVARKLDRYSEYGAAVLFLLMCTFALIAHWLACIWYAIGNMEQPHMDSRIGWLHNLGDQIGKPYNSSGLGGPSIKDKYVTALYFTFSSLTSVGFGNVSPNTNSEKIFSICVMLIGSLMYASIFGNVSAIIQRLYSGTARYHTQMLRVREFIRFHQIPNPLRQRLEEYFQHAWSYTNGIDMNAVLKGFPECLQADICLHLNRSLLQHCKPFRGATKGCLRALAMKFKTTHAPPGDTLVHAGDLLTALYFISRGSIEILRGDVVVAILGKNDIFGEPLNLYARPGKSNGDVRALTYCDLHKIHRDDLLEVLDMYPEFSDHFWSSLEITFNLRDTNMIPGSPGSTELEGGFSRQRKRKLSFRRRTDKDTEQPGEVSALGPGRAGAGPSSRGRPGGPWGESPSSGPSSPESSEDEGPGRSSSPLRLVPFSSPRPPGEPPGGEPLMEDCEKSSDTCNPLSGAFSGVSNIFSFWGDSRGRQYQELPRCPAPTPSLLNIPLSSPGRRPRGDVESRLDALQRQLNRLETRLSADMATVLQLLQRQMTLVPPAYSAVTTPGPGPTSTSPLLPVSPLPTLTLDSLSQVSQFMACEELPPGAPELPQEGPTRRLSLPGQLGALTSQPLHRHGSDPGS
Chain of histamine H3 receptor (Q9Y5N1 whole entry, species assumed): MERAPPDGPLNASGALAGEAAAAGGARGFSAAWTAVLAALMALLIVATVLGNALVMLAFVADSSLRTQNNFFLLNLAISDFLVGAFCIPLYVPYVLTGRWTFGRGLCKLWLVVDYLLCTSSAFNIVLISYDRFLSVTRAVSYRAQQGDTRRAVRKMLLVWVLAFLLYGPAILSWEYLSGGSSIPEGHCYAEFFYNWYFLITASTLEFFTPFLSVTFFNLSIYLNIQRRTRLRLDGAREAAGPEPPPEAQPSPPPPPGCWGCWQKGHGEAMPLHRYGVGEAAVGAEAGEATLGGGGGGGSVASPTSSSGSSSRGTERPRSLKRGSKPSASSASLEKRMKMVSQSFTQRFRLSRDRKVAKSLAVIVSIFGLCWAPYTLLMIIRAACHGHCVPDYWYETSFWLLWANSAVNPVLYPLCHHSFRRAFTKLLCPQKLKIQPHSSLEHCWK

Turning to `CN1CCN(CCNC(=O)Nc2ccc(OC3CC(N4CCCCC4)C3)cc2)CC1` (stereo not shown) [BIOS-B-22, 1-(2-(4-methylpiperazin-1-yl)ethyl)-3-(4-(3-(piperidin-1-yl)cyclobutoxy)phenyl)urea], the inhibition at 10 µM in data set [1] was -2.43%. For the same molecule, in data set [2], the inhibition at 0.005 µM worked out at 101% and the inhibition at 0.05 µM came to 99.5%.

`CN1CCN(CC(=O)Nc2ccc(OC3CC(N4CCCCC4)C3)cc2)CC1` (stereo not shown) [BIOS-B-10, 2-(4-methylpiperazin-1-yl)-N-(4-(3-(piperidin-1-yl)cyclobutoxy)phenyl)acetamide]: in data set [1], the inhibition at 10 µM is -1.26%. Further, in data set [2], the inhibition at 0.005 µM was determined as 99.5% and the inhibition at 0.05 µM was 97.5%.

As to `O=C(NCCN1CCC(O)CC1)Nc1ccc(OC2CC(N3CCCCC3)C2)cc1` (stereo not shown) [BIOS-B-19, 1-(2-(4-hydroxypiperidin-1-yl)ethyl)-3-(4-(3-(piperidin-1-yl)cyclobutoxy)phenyl)urea], the inhibition at 10 µM in data set [1] is -0.09%. Moreover, in data set [2], the inhibition at 0.005 µM was found to be 101% and the inhibition at 0.05 µM came to 101%.

`C[C@@H]1CCCN1CCNC(=O)Nc1ccc(OC2CC(N3CCCCC3)C2)cc1` (stereo partly drawn) [BIOS-B-14, (R)-1-(2-(2-methylpyrrolidin-1-yl)ethyl)-3-(4-(3-(piperidin-1-yl)cyclobutoxy)phenyl)urea]: in data set [1], the inhibition at 10 µM came to 0.17%. The “mechanical withdrawal thresholds vs model group” value in data set [3] (1 mg/kg single dose by gavage, 0.5 h to 5 h after administration, P<0.05, FIG. 2) was “significantly increased”. For the same molecule, the “period of analgesia time compared with pregabalin” value in data set [3] (BIOS-B-14 1 mg/kg vs pregabalin 30 mg/kg, FIG. 2 study) is given as “longer period of analgesia time than that of pregabalin”. In addition, in data set [2], the inhibition at 0.005 µM worked out at 100% and the inhibition at 0.05 µM turned out to be 101%.

With `O=C(CN1CCCC(O)C1)Nc1ccc(OC2CC(N3CCCCC3)C2)cc1` (stereo not shown) [BIOS-B-11, 2-(3-hydroxypiperidin-1-yl)-N-(4-(3-(piperidin-1-yl)cyclobutoxy)phenyl)acetamide], in data set [1], the inhibition at 10 µM was 2.96%. Moreover, in data set [2], the inhibition at 0.005 µM was 97% and the inhibition at 0.05 µM turned out to be 99.4%.

Take `O=C(CN1CCOCC1)Nc1ccc(OC2CCN(C3CCC3)CC2)cc1` [SUVN-G3031, Samelisant, reference compound]: in data set [2], the inhibition at 0.005 µM turned out to be 57.8% and the inhibition at 0.05 µM is 85.8%.

Take `C[C@@H]1CCCN1CC(=O)Nc1ccc(OC2CC(N3CCCCC3)C2)cc1` (stereo partly drawn) [BIOS-B-2, (R)-2-(2-methylpyrrolidin-1-yl)-N-(4-(3-(piperidin-1-yl)cyclobutoxy)phenyl)acetamide]: in data set [2], the inhibition at 0.005 µM stood at 100% and the inhibition at 0.05 µM was 100%.

For the molecule `O=C(CN1CCNCC1)Nc1ccc(OC2CC(N3CCCCC3)C2)cc1` (stereo not shown) [BIOS-B-9, 2-(piperazin-1-yl)-N-(4-(3-(piperidin-1-yl)cyclobutoxy)phenyl)acetamide], the inhibition at 10 µM in data set [1] is -1.03%. Besides, in data set [2], the inhibition at 0.005 µM worked out at 101% and the inhibition at 0.05 µM worked out at 99.6%.

With `CN1CCCN(CC(=O)Nc2ccc(OC3CC(N4CCCCC4)C3)cc2)CC1` (stereo not shown) [BIOS-B-4, 2-(4-methyl-1,4-diazepan-1-yl)-N-(4-(3-(piperidin-1-yl)cyclobutoxy)phenyl)acetamide], in data set [2], the inhibition at 0.005 µM was 101% and the inhibition at 0.05 µM stood at 100%.

For `O=C(CN1CCOCC1)Nc1ccc(OC2CC(N3CCCCC3)C2)cc1` (stereo not shown) [BIOS-B-1, 2-morpholino-N-(4-(3-(piperidin-1-yl)cyclobutoxy)phenyl)acetamide], in data set [1], the inhibition at 10 µM worked out at 8.54%. In data set [2], the inhibition at 0.005 µM came to 91.7% and the inhibition at 0.05 µM was determined as 100%.

Consider `O=C(NCCN1CCCC(O)C1)Nc1ccc(OC2CC(N3CCCCC3)C2)cc1` (stereo not shown) [BIOS-B-23, 1-(2-(3-hydroxypiperidin-1-yl)ethyl)-3-(4-(3-(piperidin-1-yl)cyclobutoxy)phenyl)urea], for which the inhibition at 10 µM in data set [1] is 0.37%. Moreover, in data set [2], the inhibition at 0.005 µM was 100% and the inhibition at 0.05 µM amounted to 100%.

On to `O=C(NCCN1CCSCC1)Nc1ccc(OC2CC(N3CCCCC3)C2)cc1` (stereo not shown) [BIOS-B-20, 1-(4-(3-(piperidin-1-yl)cyclobutoxy)phenyl)-3-(2-thiomorpholinoethyl)urea], for which, in data set [1], the inhibition at 10 µM was -0.66%. For the same molecule, in data set [2], the inhibition at 0.005 µM turned out to be 100% and the inhibition at 0.05 µM came to 101%.

Turning to `CC(C)C[C@H](CN)CC(=O)O` [Pregabalin, pregabalin, reference compound], the “mechanical withdrawal thresholds vs model group” value in data set [3] (30 mg/kg single dose by gavage, only from 0.5 h to 1 h after administration, FIG. 2 study) is “significantly different”; in data set [3] (30 mg/kg single dose by gavage, only from 0.5 h to 2 h after administration, FIG. 1 study), “significantly different”.

`O=C(CN1CCC(F)(F)CC1)Nc1ccc(OC2CC(N3CCCCC3)C2)cc1` (stereo not shown) [BIOS-B-5, 2-(4,4-difluoropiperidin-1-yl)-N-(4-(3-(piperidin-1-yl)cyclobutoxy)phenyl)acetamide]: in data set [2], the inhibition at 0.005 µM was determined as 98.9% and the inhibition at 0.05 µM was 99.9%.

`O=C(NCCN1CCCCC1)Nc1ccc(OC2CC(N3CCCCC3)C2)cc1` (stereo not shown) [BIOS-B-15, 1-(4-(3-(piperidin-1-yl)cyclobutoxy)phenyl)-3-(2-(piperidin-1-yl)ethyl)urea]: in data set [1], the inhibition at 10 µM is -0.12%. Moreover, in data set [2], the inhibition at 0.005 µM stood at 99% and the inhibition at 0.05 µM was determined as 100%.

With `C[C@@H]1C[C@H]2[C@@H]3CCC4=CC(=O)C=C[C@]4(C)[C@@]3(F)[C@@H](O)C[C@]2(C)[C@@]1(O)C(=O)CO` [Dex, dexamethasone, reference compound], the “Inhibition Rate (%) of number of scratches” value in data set [4] is given as 29.3%.

`CN1CCCN(CCNC(=O)Nc2ccc(OC3CC(N4CCCCC4)C3)cc2)CC1` (stereo not shown) [BIOS-B-17, 1-(2-(4-methyl-1,4-diazepan-1-yl)ethyl)-3-(4-(3-(piperidin-1-yl)cyclobutoxy)phenyl)urea]: in data set [1], the inhibition at 10 µM was determined as 1.52%. Besides, in data set [2], the inhibition at 0.005 µM is 101% and the inhibition at 0.05 µM was 99.4%.

Turning to `O=C(NCCN1CCOCC1)Nc1ccc(OC2CC(N3CCCCC3)C2)cc1` (stereo not shown) [BIOS-B-13, 1-(2-morpholinoethyl)-3-(4-(3-(piperidin-1-yl)cyclobutoxy)phenyl)urea], the inhibition at 10 µM in data set [1] was -1.47%. In addition, in data set [2], the inhibition at 0.005 µM is 99.6% and the inhibition at 0.05 µM is 99.8%.

Take `O=C(CN1CCCC(CCO)C1)Nc1ccc(OC2CC(N3CCCCC3)C2)cc1` (stereo not shown) [BIOS-B-8, 2-(3-(2-hydroxyethyl)piperidin-1-yl)-N-(4-(3-(piperidin-1-yl)cyclobutoxy)phenyl)acetamide]: the inhibition at 10 µM in data set [1] is 4.82%. Also, in data set [2], the inhibition at 0.005 µM was found to be 101% and the inhibition at 0.05 µM stood at 99.5%.

Consider `O=C(CN1CCSCC1)Nc1ccc(OC2CC(N3CCCCC3)C2)cc1` (stereo not shown) [BIOS-B-7, N-(4-(3-(piperidin-1-yl)cyclobutoxy)phenyl)-2-thiomorpholinoacetamide], for which, in data set [2], the inhibition at 0.005 µM was found to be 88.3% and the inhibition at 0.05 µM is 99.5%.

Take `O=C(CN1CCC(O)CC1)Nc1ccc(OC2CC(N3CCCCC3)C2)cc1` (stereo not shown) [BIOS-B-6, 2-(4-hydroxypiperidin-1-yl)-N-(4-(3-(piperidin-1-yl)cyclobutoxy)phenyl)acetamide]: in data set [2], the inhibition at 0.005 µM amounted to 103% and the inhibition at 0.05 µM turned out to be 99.8%.

For the molecule `O=C(CN1CCCCC1)Nc1ccc(OC2CC(N3CCCCC3)C2)cc1` (stereo not shown) [BIOS-B-3, 2-(piperidin-1-yl)-N-(4-(3-(piperidin-1-yl)cyclobutoxy)phenyl)acetamide], in data set [2], the inhibition at 0.005 µM came to 95.6% and the inhibition at 0.05 µM came to 99.4%.
